The target in this assay is T1, Chicken egg lysozyme (Gallus gallus, UniProt P00698).
T1 construct: Chicken egg lysozyme (EC 3.2.1.17, FisherBiotech, 3X crystallized, lot Nos. 995417-12 and 996924-12); purchased FisherBiotech; host or cells: chicken egg (natural source)
As to the kind of experiment: Ligand binding to polycrystalline lysozyme detected by high resolution X-ray powder diffraction. From the text: The screening method of the present invention can be as follows. Two samples of polycrystalline material are produced as slurries. By “slurry” is meant, for example, a suspension of microcrystals of a macromolecule or macromolecule-ligand complex in a liquid. One of the samples includes the target protein or macromolecule and a suitable solvent. The other of the samples includes the target protein or macromolecule, one or more selected ligands and the same solvent as in the first sample. High resolution powder diffraction patterns are obtained for the polycrystalline macromolecule material in each sample. The patterns from the first and second samples are then compared to see if there is any discernable difference between the two sets of diffraction patterns beyond expected or measured experimental error or variation. When there is such a discernable difference between the two sets of diffraction patterns, that is a positive indication for the formation of a complex between the target protein or macromolecule and one or more of the selected ligands. […] In another manner, the pattern of the first sample can be inspected or analyzed to determine the positions of the diffraction peaks from the unbound form of the target protein or macromolecule, while the pattern of the second sample can be inspected or analyzed to determine the positions of the diffraction peaks from the target protein or macromolecule in the presence of the one or more selected ligands. Differences in such diffraction peaks can then be used to determine if there is a difference indicating binding of a ligand. This process is readily automated via computerized data processing routines.
Chicken egg lysozyme (EC 3.2.1.17, FisherBiotech, 3X crystallized, lot Nos. 995417-12 and 996924-12) and N-acetylglucosamine (NAG, ICN Biomedicals, Inc. lot No. R9745), pH 6.0 0.05M Na2HPO4/KH2PO4 buffer (Fisher Sci.), pH 5.0 0.05M KHphthalate/NaOH buffer (Hydrion™, Aldrich Chem.) and NaCl (“Certified for Biological Use”, Fisher Sci.) were used as received. In a typical sample preparation, a polycrystalline slurry was made by combining ˜20 mg lysozyme (1.4 μmol), about 10 mg of NAG (45 μmol) and 200 μl of 0.5M NaCl pH 6.0 buffer with an agate mortar and pestle. Polycrystalline precipitate formed within a few seconds. The slurry was loaded into a 1.5 mm diameter glass capillary, and centrifuged to pack the slurry. Excess mother liquor was removed and the capillary flame sealed to prevent subsequent solvent evaporation. In a similar way, a polycrystalline sample of unbound lysozyme in pH 6.0 0.5M NaCl buffer was prepared. Similar samples with pH 5.0 0.5M NaCl buffer were also prepared. Samples were about 8 mm long. As each sample was prepared, X-ray powder diffraction data were immediately collected at room temperature (23° C.) on beam line X3bl at the National Synchrotron Light Source, Brookhaven National Laboratory, equipped with a double Si(111) monochromator and a Ge(111) analyser; the sample was spun during data collection to ensure good powder averaging.

Molecules are shown by their SMILES. “Also recorded” adds a separate entry of the source.

T1 sequence (P00698 19-147): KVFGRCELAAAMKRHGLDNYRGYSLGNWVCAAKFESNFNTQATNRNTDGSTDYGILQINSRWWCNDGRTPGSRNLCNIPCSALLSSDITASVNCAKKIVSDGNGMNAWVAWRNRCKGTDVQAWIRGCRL

With `CC(=O)N[C@H]1C(O)O[C@H](CO)[C@@H](O)[C@@H]1O` (stereo partly shown) [NAG, N-acetylglucosamine], for the setting “pH 5.0 0.5M NaCl”, the “lattice parameter a smaller compared to pure lysozyme from the same solvent” value amounted to 0.06% and the “lattice parameter c larger compared to pure lysozyme from the same solvent” value is recorded as 0.15%. In addition, for the setting “pH 6.0 0.5M NaCl”, the “lattice parameter a smaller compared to apo-protein precipitated from the same buffer” value is given as 0.21% and the “lattice parameter c larger compared to apo-protein precipitated from the same buffer” value was found to be 0.49%. Moreover, for the setting “slurry from pH 5.0 0.5M NaCl buffer, FIG. 2”, the “change in powder diffraction pattern versus unbound lysozyme (complex formation)” value is listed as “no visible change in the powder pattern; also recorded: no changes evident”. Besides, the “change in powder diffraction pattern versus unbound lysozyme (complex formation)” value (slurry from pH 6.0 0.5M NaCl buffer, FIG. 1) is recorded as “a structural modification has occurred associated with the formation of a NAG/lysozyme complex”. Besides, the “change in powder diffraction pattern versus unbound lysozyme (complex formation)” value (slurry from pH 6.0 0.5M NaCl buffer, FIG. 1, listed as α-NAG) is given as “easily visible changes in the powder diffraction patterns”.
